Laboratory results from patent publication US8604023B2, “1,4-benzodiazepinone compounds and their use in treating cancer” (The Regents of the University of Michigan, priority 2009, dated 2013).

Experiments:
Assay in all cases: cancer cell growth inhibition (SRB)
Assay type in all cases: cell-based, human
U251 = conditions: CNS Cancer
OVCAR-5 = conditions: Ovarian Cancer
NCI-H226 = conditions: Non-Small Cell Lung Cancer
HT29 = conditions: Colon Cancer
HL-60(TB) = conditions: Leukemia
PC-3 = conditions: Prostate Cancer
OVCAR-8 = conditions: Ovarian Cancer
MDA-MB-468 = conditions: Breast Cancer
Description: The compounds described herein can be tested for activity against various forms of cancer by testing for inhibition of cancer cell growth using in vitro assays. For example, compounds V-23 and V-38 (See Table 5 in Example 26) where tested for efficacy in inhibiting the growth of human cancer cells using the general procedure described below. The test evaluated compound activity for inhibiting cancer cell growth in over 50 cancer cell lines, which included non-small cell lung cancer, colon cancer, breast cancer, ovarian cancer, leukemia, renal cancer, melanoma, prostate cancer, and cancer of the central nervous system tissue. […]
Following addition of the test compound, the plates are incubated for an additional 48 h at 37° C., 5% CO2, 95% air, and 100% relative humidity. […] Bound stain is then solubilized with 10 mM trizma base, and the absorbance is read on an automated plate reader at a wavelength of 515 nm. […] Using seven absorbance measurements [time zero, (Tz), control growth, (C), and test growth in the presence of drug at the five concentration levels (Ti)], the percentage growth is calculated at each of the drug concentrations levels.
The percentage of growth inhibition caused by the test compounds on the cancer cell lines can be calculated using the following formulae: [(Ti−Tz)/(C−Tz)]×100 for concentrations for which Ti≧Tz [(Ti−Tz)/Tz]×100 for concentrations for which Ti<Tz

COLO 205 = conditions: Colon Cancer
HS 578T = conditions: Breast Cancer
CAKI-1 = conditions: Renal Cancer
SNB-75 = conditions: CNS Cancer

## CN1C(=O)C(Cc2ccc3ccccc3c2)N=C(c2cn[nH]c2)c2cc(Cl)ccc21 (stereo not drawn) [Compound V-38]
U251
  growth inhibition of the cancer cells: +++ (at least 75% growth inhibition of the cancer cells)
OVCAR-5
  growth inhibition of the cancer cells: + (less than 40% growth inhibition of the cancer cells)
NCI-H226
  growth inhibition of the cancer cells: ++ (40%-75% growth inhibition of the cancer cells)
HT29
  growth inhibition of the cancer cells: + (less than 40% growth inhibition of the cancer cells)
HL-60(TB)
  growth inhibition of the cancer cells: + (less than 40% growth inhibition of the cancer cells)
PC-3
  growth inhibition of the cancer cells: + (less than 40% growth inhibition of the cancer cells)
OVCAR-8
  growth inhibition of the cancer cells: + (less than 40% growth inhibition of the cancer cells)
MDA-MB-468
  growth inhibition of the cancer cells: ++ (40%-75% growth inhibition of the cancer cells)
COLO 205
  growth inhibition of the cancer cells: ++ (40%-75% growth inhibition of the cancer cells)
HS 578T
  growth inhibition of the cancer cells: + (less than 40% growth inhibition of the cancer cells)
CAKI-1
  growth inhibition of the cancer cells: + (less than 40% growth inhibition of the cancer cells)
SNB-75
  growth inhibition of the cancer cells: +++ (at least 75% growth inhibition of the cancer cells)
